# Where a name gives a salt, the structure may show the parent alone. Read-outs that look alike come from different tables or passages of the source.
# What was measured:
# [1] = target: AaegOR9 (Aedes aegypti, UniProt Q177X5); assay: Two-electrode voltage clamp of Xenopus oocytes expressing AaegOR9-ORco (tuning curve and concentration-response); type: cell-based; details: for Rank according to potency (No.): AaegOR9 tuning curve of Figure 1, 500 nM, 1 = most potent of 31; for Ligand potency in AaegOR9 tuning curve (in words) / AaegOR9 response relative to indole (tuning curve): 500 nM odorant; for Ligand potency in AaegOR9 tuning curve (in words): panel of 31 indole derivatives; for AaegOR9 response relative to indole (tuning curve): responses normalized to indole, n = 10
# Protocol: The methodologies and protocols have been described in details elsewhere (Bohbot and Dickens, [2009]). AaegOr9 and Aaeg-ORco cRNAs (Bohbot et al., [2011]) were synthesized from linearized pSP64DV expression vectors using the mMESSAGE mMACHINE® SP6 kit (Life Technologies). Stage V-VII oocytes were harvested from Xenopus laevis females, mechanically separated, treated with collagenase (8 mg/mL, 30 min, 18°C) and rinsed in washing solution (96 mM NaCl, 2 mM KCl, 5 mM MgCl2 and 5 mM HEPES, pH 7.6). Oocytes were microinjected with 27.6 ng AaegOr9 and AaegORco cRNAs, incubated at 18°C for 3–4 days in ND96 solution (96 mM NaCl, 2 mM KCl, 5 mM MgCl2, 0.8 mM CaCl2 and 5 mM HEPES, pH 7.6), supplemented with 5% dialyzed horse serum, 50 μg/mL tetracycline, 100 μg/mL streptomycin and 550 μg/mL sodium pyruvate. Whole-cell currents were recorded using the two-microelectrode voltage-clamp technique. During recording sessions, the holding potential was maintained at −80 mV using an OC-725C oocyte clamp (Warner Instruments, LLC, Hamden, CT, USA). Oocytes placed in a RC-3Z oocyte recording chamber (Warner Instruments, LLC, Hamden, CT, USA) were exposed to odorants for 8 s. Current was allowed to return to baseline between odorant applications. Data acquisition and concentration-response analyses were carried out with a Digidata 1550A and the pCLAMP10 software (Molecular Devices, Sunnyvale, CA, USA), and analyzed using GraphPad Prism 7 (GraphPad Software Inc., La Jolla, CA, USA). Stock concentration of odorants (10^−2 M) were dissolved in ringer solution containing 2% dimethyl sulfoxide (DMSO) in order to solubilize the hydrophobic indolic compounds.
# The response profile was established using multiple sessions, each including six compounds at a time and indole as an internal reference. […] All the response values were normalized to the indole reference in each recording session (Supplementary Figure 1).
# For the establishment of the concentration-response curves, oocytes were exposed to increasing concentrations of indole, skatole and indole-3-carboxaldehyde (I3C; Supplementary Figure 2). Quantitative characterization of OR sensitivity was estimated using the averaged effective concentration at 50% of the maximal response (EC50) over the sample population. The data to establish the concentration response curve and EC50 of AaegOR10-skatole was extracted from a previous study (Bohbot and Dickens, [2012]).
# We also included indole and skatole as references (Bohbot et al., [2011]). The screen was carried out using a low odorant concentration (500 nM) in order to mitigate the caveats associated with high ligand concentrations, including receptor adaptation, antagonist effects and technical artifacts such as broad molecular receptive ranges (Bohbot and Pitts, [2015]).
# [2] = test system: OR08-ORco; parameters: method as in Bohbot et al., 2009; details: Aedes aegypti OR08-ORco; kairomone receptor; ref Bohbot et al., 2009; cited from earlier work
# [3] = test system: OR03-ORco; parameters: method as in Liu et al., 2014; details: Spodoptera exigua OR03-ORco; kairomone receptor; ref Liu et al., 2014; cited from earlier work
# [4] = test system: OR65-ORco; parameters: method as in Wang et al., 2010; details: Anopheles gambiae OR65-ORco; kairomone receptor; ref Wang et al., 2010; cited from earlier work
# [5] = test system: OR03-ORco; parameters: method as in Leary et al., 2012; details: Ostrinia furnacalis OR03-ORco; pheromone receptor; ref Leary et al., 2012; cited from earlier work
# [6] = test system: OR06-Orco; parameters: method as in Wanner et al., 2010; details: Ostrinia nubilalis OR06-Orco; pheromone receptor; ref Wanner et al., 2010; cited from earlier work
# [7] = test system: OR10-ORco; parameters: method as in Hughes et al., 2010; details: Culex quinquefasciatus OR10-ORco; kairomone receptor; ref Hughes et al., 2010; cited from earlier work
# [8] = Water solubility; type: physicochemical; details: skatole vs indole
# [9] = test system: AaegOR10; details: Aedes aegypti OR10-ORco; kairomone receptor; ref Bohbot et al., 2012; cited from earlier work
# [10] = test system: OR01-ORco; parameters: method as in Mitsuno et al., 2008; details: Plutella xyllostella OR01-ORco; pheromone receptor; ref Mitsuno et al., 2008; cited from earlier work
# [11] = test system: OR13-ORco; parameters: method as in Liu et al., 2013; details: Helicoverpa armigera OR13-ORco; pheromone receptor; ref Liu et al., 2013; cited from earlier work
# [12] = test system: OR13-ORco; parameters: method as in Wang et al., 2011; details: Heliothis virescens OR13-ORco; pheromone receptor; ref Wang et al., 2011; cited from earlier work
# [13] = test system: OR10-ORco; parameters: method as in Xu et al., 2012; details: Amyelois transitella OR10-ORco; pheromone receptor; ref Xu et al., 2012; cited from earlier work
# [14] = test system: OR01-ORco; parameters: method as in Xu et al., 2012; details: Bombyx mori OR01-ORco; pheromone receptor; ref Xu et al., 2012; cited from earlier work
# [15] = test system: OR12-ORco; parameters: method as in Zhang et al., 2013; details: Spodoptera litura OR12-ORco; kairomone receptor; ref Zhang et al., 2013; cited from earlier work
# [16] = test system: OR56-ORco; parameters: method as in Tanaka et al., 2009; details: Bombyx mori OR56-ORco; kairomone receptor; ref Tanaka et al., 2009; cited from earlier work
# [17] = test system: OR04-ORco; parameters: method as in Sun et al., 2013; details: Plutella xyllostella OR04-ORco; pheromone receptor; ref Sun et al., 2013; cited from earlier work
# [18] = test system: OR11-ORco; parameters: method as in Wanner et al., 2007; details: Apis mellifera OR11-ORco; pheromone receptor; ref Wanner et al., 2007; cited from earlier work
# Chain of AaegOR9 (Q178U6 whole entry): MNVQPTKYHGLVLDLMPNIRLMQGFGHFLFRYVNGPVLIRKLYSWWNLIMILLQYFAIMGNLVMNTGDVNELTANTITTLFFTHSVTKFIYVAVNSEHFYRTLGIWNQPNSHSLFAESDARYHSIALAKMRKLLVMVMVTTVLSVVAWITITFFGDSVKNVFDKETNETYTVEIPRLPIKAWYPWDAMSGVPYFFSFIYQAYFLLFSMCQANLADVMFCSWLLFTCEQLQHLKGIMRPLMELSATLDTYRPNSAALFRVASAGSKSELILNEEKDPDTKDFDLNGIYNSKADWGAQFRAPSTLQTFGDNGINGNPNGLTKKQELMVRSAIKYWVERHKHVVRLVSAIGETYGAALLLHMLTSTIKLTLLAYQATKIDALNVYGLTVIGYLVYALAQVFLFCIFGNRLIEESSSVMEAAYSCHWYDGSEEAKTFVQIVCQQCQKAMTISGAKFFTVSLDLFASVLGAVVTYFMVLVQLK
# Chain of AaegOR9 (Q177X5 entry or part of it): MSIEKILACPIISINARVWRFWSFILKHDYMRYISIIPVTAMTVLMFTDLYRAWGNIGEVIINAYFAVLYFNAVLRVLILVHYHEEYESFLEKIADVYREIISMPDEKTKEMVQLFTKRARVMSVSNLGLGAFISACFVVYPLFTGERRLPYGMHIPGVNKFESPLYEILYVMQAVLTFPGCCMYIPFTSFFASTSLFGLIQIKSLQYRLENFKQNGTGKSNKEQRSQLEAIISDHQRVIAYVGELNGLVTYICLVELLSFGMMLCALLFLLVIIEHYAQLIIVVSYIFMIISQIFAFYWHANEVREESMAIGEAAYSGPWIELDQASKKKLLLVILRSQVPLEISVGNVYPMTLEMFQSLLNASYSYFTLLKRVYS
SMILES,Rank according to potency (No.) [1],other results
NCCc1c[nH]c2ccc(O)cc12 [Serotonin],29,–
O=C1/C(=C2\Nc3ccccc3C2=O)Nc2ccccc21 [Indigo],26,–
O=C(O)Cc1c[nH]c2ccccc12 [3-Indole acetic acid],28,–
C=C[C@H](O)CCCCC [(R)-(−)-1-octen-3-ol],–,EC50 [2]: 158 nM
C=CC(=C)CC/C=C(\C)CCC=C(C)C [E-b-farnesene],–,EC50 [3]: 300 nM
"O=Cc1c[nH]c2ccccc12 [I3C, indole-3-carboxaldehyde]",2,Ligand potency in AaegOR9 tuning curve (in words) [1]: next most potent ligands
C=CCc1ccc(O)c(OC)c1 [Eugenol],–,EC50 [4]: 222 nM
CC/C=C\CCCCCCCCCCOC(C)=O [Z1 1-14:OAc],–,EC50 [5]: 25 nM; EC50 [6]: 860 nM
c1ccc2c(c1)[nH]c1cnccc12 [Norharmane],13,–
"Cc1c[nH]c2ccccc12 [skatole, 3-methylindole]",1,"Ligand potency in AaegOR9 tuning curve (in words) [1]: most potent ligand; AaegOR9 response relative to indole (tuning curve) [1]: five times higher than indole; AaegOR9 response relative to indole (tuning curve) ([1]; listed as Skatole): five times more potent than indole; EC50 ([1]; AaegOR9, concentrations 100 pM to 10 μM): ~5 nM; Fold higher sensitivity of AaegOR9 to skatole than to indole (EC50 ratio) ([1]; AaegOR9, skatole vs indole): 176; EC50 ([1]; Aedes aegypti OR9-ORco, kairomone receptor, This study): 4.8 nM; Concentration range activating AaegOR9 ([1]; selective and reversible activation): high picomolar (below 1 nM) to low nanomolar (between 1 and 10 nM); EC50 [7]: 90 nM; Water solubility relative to indole [8]: seven times less water soluble; EC50 [9]: 109 nM"
O=C1Cc2ccccc2N1 [2-Oxindole],10,–
COC(=O)c1c[nH]c2ccccc12 [Methyl indole-3-carboxylate],5,Ligand potency in AaegOR9 tuning curve (in words) [1]: next most potent ligands
Oc1cccc2[nH]ccc12 [4-Hydroxyindole],7,–
N#CCc1c[nH]c2ccccc12 [3-indole acetonitrile],4,Ligand potency in AaegOR9 tuning curve (in words) [1]: next most potent ligands
O=C(O)C=Cc1c[nH]c2ccccc12 [3-Indoleacrylic acid],18,–
Cc1nccc2c1[nH]c1ccccc12 [Harmane],6,–
CN(C)Cc1c[nH]c2ccccc12 [Gramine],27,Ligand potency in AaegOR9 tuning curve (in words) [1]: among the least potent ligands
NC(=O)Cc1c[nH]c2ccccc12 [Indole-3-acetamide],23,–
O=C(O)CCCc1c[nH]c2ccccc12 [Indole-3-butyric acid],22,–
O=C1Nc2ccccc2C1=O [Isatin],16,–
NCCc1c[nH]c2ccccc12 [Tryptamine],24,–

SMILES,Rank according to potency (No.) [1],other results
CCCC/C=C\CCCCCCCCCC=O [Z1 1-16:Ald],–,EC50 [10]: 880 nM; EC50 [11]: 3400 nM; EC50 [12]: 367 nM
COC(=O)Cc1c[nH]c2ccccc12 [Methyl indole-3-acetate],25,–
OCc1c[nH]c2ccccc12 [Indole-3-carbinole],19,Ligand potency in AaegOR9 tuning curve (in words) [1]: among the least potent ligands
OCCc1c[nH]c2ccccc12 [3-(2-Hydroxyethyl) indole],12,–
O=S(=O)(O)Oc1c[nH]c2ccccc12 [Indoxyl sulfate potassium salt],30,–
ON=CCc1c[nH]c2ccccc12 [Indole-3-acetaldoxime],21,–
CC/C=C\C=C/CCCCCCCCCC=O [Z1 1Z13-16:Ald],–,EC50 [13]: 499 nM
Oc1ccc2[nH]ccc2c1 [5-Hydroxyindole],9,–
"CCC/C=C\C=C\CCCCCCCCCO [E10,Z12-16:OH (Bombykol), Bombykol]",–,EC50 [14]: 45.4 nM
"c1ccc2c(Cc3c[nH]c4ccccc34)c[nH]c2c1 [3,3’-Diindolemethane]",8,–
c1ccc2ncccc2c1 [Quinoline],14,–
CC/C=C\CCOC(C)=O [Z3-6:OAc],–,EC50 [15]: 339 nM
O=C(O)CCc1c[nH]c2ccccc12 [Indole-3-propionic acid],15,–
CC/C=C\CC1=C(C)CCC1=O [Z-jasmone],–,EC50 [16]: 6000 nM
COc1ccc2[nH]c3c(c2c1)CCNC3 [Pinoline],31,–
CCCC/C=C\CCCCCCCC=O [Z9-14:Ald],–,EC50 [12]: 240 nM
COc1ccc2c3c([nH]c2c1)C(C)=NCC3 [Harmaline],20,–
O=C(O)c1c[nH]c2ccccc12 [Indole-3-carboxylic acid],11,–
C[C@H](NC(=O)Cc1c[nH]c2ccccc12)C(=O)O [Indole-3-acetyl-L-alanine],17,–
CCCC/C=C\CCCCCCCCOC(C)=O [Z9-14: OAc],–,EC50 [17]: 243 nM
CC(=O)CCCCCC=CC(=O)O [9-oxo-2-decenoic acid],–,EC50 [18]: 280 nM

# Reference: publication PMC6353850, “Supersensitive Odorant Receptor Underscores Pleiotropic Roles of Indoles in Mosquito Ecology” (Frontiers in Cellular Neuroscience, 2019)
